The record followed here is PubChem BioAssay AID743469 (Vanderbilt Specialized Chemistry Center, 2014).

The test has as its target Histone-lysine N-methyltransferase 2A (Homo sapiens) (UniProt Q03164). As to the kind of experiment: disruptors of menin binding to MLL peptide – biochemical, fluorescence polarization, SAR follow-up (AID 743469). To be noted: menin + fluorescein MLL peptide. On the technique in general: Polarisation of emitted light reports the rotation of a fluorescent probe.

Calls of active or inactive are those of the source. No rule for the calls is given here.

Histone-lysine N-methyltransferase 2A (Homo sapiens), sequence (Q03164 whole entry, looked up): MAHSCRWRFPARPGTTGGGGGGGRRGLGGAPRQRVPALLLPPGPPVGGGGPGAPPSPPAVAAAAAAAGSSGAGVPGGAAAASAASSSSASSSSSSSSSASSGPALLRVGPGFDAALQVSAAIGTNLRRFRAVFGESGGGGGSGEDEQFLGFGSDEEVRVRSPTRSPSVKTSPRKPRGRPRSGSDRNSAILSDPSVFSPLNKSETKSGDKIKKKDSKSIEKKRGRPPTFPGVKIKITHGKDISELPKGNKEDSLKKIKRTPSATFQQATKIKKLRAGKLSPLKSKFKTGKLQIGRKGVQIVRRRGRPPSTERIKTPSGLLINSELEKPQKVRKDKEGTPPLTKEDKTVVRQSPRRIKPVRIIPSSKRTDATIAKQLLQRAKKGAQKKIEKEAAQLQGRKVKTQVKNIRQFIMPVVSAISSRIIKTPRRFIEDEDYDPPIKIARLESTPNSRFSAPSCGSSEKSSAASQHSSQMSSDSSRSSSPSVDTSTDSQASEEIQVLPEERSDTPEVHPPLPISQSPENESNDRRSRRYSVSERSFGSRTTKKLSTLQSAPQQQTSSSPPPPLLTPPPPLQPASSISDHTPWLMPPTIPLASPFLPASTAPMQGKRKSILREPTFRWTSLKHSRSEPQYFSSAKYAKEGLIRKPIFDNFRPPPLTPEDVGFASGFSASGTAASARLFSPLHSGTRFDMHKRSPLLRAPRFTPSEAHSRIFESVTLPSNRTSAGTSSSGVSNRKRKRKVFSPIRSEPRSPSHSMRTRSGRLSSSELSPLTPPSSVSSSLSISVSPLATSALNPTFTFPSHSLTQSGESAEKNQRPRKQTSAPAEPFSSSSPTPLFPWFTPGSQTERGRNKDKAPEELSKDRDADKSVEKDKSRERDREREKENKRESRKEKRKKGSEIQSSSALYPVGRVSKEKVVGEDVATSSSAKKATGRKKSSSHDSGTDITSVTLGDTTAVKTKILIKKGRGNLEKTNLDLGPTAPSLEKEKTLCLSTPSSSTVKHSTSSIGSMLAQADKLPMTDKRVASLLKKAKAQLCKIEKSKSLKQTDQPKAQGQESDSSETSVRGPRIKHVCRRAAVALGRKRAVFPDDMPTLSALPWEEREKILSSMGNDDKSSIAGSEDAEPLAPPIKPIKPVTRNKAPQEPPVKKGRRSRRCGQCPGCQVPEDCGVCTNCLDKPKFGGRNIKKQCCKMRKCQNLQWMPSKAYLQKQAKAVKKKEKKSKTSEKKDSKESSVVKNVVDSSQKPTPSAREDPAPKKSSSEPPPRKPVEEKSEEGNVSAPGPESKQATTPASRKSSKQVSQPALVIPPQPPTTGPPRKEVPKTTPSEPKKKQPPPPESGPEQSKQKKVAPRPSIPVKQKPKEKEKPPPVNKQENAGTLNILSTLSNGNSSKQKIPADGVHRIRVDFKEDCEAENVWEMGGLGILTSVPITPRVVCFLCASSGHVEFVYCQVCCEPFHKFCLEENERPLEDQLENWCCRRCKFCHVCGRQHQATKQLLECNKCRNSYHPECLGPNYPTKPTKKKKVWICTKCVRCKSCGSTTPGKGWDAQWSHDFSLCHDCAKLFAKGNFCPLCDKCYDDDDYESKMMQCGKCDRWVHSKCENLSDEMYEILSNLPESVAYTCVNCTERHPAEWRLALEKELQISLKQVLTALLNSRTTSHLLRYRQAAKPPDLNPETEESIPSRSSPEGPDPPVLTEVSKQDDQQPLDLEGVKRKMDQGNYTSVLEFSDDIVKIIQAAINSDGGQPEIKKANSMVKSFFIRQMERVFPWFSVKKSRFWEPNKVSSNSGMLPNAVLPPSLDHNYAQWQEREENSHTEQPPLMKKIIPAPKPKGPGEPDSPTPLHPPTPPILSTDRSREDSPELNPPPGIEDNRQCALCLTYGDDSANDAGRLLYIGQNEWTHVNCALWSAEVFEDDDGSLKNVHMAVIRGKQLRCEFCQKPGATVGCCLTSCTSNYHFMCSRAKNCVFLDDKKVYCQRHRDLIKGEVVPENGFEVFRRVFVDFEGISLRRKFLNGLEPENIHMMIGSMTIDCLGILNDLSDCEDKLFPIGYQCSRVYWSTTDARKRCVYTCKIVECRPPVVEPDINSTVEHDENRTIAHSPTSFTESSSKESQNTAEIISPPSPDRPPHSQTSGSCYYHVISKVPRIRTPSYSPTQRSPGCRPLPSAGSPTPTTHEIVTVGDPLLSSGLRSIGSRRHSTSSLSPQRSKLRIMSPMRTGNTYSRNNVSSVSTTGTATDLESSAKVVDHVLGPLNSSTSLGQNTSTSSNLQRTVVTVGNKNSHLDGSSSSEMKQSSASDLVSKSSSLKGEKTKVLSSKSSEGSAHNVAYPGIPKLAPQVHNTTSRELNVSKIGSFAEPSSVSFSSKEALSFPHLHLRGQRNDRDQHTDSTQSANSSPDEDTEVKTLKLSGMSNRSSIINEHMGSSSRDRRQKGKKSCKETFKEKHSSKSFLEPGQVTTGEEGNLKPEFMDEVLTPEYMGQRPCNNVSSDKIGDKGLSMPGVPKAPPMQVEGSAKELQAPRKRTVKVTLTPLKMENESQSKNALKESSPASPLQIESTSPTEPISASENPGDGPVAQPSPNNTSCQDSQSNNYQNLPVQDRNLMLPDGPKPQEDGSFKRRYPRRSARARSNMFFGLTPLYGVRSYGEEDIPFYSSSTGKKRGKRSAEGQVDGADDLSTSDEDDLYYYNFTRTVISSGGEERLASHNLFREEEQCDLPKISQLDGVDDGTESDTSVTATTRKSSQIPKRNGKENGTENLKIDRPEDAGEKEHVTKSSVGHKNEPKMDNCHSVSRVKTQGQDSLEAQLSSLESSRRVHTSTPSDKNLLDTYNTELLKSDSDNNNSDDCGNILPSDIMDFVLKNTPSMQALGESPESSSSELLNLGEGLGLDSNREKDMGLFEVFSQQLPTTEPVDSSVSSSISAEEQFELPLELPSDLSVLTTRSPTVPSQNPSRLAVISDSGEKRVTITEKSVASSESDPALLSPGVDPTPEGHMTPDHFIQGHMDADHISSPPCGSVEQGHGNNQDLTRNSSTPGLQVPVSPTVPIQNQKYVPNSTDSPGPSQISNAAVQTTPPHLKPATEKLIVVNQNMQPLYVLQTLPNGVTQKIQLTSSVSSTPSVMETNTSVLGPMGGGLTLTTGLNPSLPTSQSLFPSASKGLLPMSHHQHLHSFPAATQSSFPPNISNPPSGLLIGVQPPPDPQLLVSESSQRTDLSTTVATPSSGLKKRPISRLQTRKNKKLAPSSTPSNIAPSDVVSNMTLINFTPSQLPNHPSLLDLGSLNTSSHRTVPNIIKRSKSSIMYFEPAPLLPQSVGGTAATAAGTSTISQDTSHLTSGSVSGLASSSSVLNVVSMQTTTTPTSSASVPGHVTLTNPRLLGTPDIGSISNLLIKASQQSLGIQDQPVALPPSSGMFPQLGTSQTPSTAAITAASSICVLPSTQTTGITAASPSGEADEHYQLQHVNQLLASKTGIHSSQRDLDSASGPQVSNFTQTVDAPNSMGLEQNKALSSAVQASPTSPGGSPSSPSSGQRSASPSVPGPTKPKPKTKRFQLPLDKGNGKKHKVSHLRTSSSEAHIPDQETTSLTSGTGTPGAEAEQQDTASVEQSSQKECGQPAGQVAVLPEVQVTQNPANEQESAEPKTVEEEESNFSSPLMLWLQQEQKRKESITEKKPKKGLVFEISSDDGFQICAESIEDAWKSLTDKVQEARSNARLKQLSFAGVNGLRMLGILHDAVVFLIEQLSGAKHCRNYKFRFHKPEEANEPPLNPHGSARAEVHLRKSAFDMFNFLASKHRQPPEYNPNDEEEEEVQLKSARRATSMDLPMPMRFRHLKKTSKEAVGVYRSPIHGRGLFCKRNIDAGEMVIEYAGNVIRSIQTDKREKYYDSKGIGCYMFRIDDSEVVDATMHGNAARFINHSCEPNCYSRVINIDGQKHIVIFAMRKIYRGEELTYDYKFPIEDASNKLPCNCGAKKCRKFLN

In the case of `N#Cc1ccc(OCCCN2CCC(C(O)(c3ccccc3)C3CCCC3)CC2)nc1` (stereo not given), the outcome was inactive. Take `NS(=O)(=O)c1ccc(OCCCN2CCC(C(O)(c3cccc(F)c3)c3nccs3)CC2)cc1` (stereo not given): the IC50 was 43.7 nM. Consider `N#Cc1ccc(OCCCN2CCC(C(O)(c3cccc(F)c3)c3nccs3)CC2)cc1` (stereo not given), for which the concentration for half-maximal inhibition (IC50) is 19.7 nM. On the same count and under the same terms, the same measure for `N#Cc1ccc(OCCCN2CCC(C(O)(c3cccnc3)C3CCCC3)CC2)cc1` (stereo not given): 709 nM; for `N#Cc1ccc(OCCCN2CCC(C(O)(c3cc(F)cc(F)c3)c3ccccn3)CC2)cc1` (stereo not given): 43.7 nM.

As usually defined, the IC50 is the concentration that gives 50% inhibition.
